Among the data in PubChem BioAssay AID179 (DTP/NCI, 2004) are outcome, EC50 and IC50 values, retold here.

The assay has as its system CEM cells HIV-1 protection, formazan growth assay. Put plainly: NCI AIDS Antiviral Assay. As to conditions: for IC50: measured here: growth of uninfected CEM cells. Summed up: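 Screen of anti-HIV-1 activity in human CEM cells using a formazan-based growth measurement at five drug concentrations. Hits with 50% or greater protection were repeated, and confirmation required reproducible complete protection.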

Values joined by “and” are separate entries in the source; they are usually repeats but may differ in a detail not shown here. Equal values may be shown once. Active and inactive are the calls of the source.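 The calls were made as follows: active = compounds giving half or more protection of infected cells from virus-caused growth loss, again on retest; inactive = the rest.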 Where a SMILES comes first, the peptide text is derived from it. The star is where a group is joined. Boc = CC(C)(C)OC(=O)*

For the molecule `CN(C)CC/C(=N\Nc1ccc(Cl)cc1Cl)c1ccccc1`, the result was inactive.

The EC50 is the concentration needed to bring the measured effect to its halfway point. For orientation: IC50 means the concentration that inhibits the measured activity by half. Take `O=C(O)CC1Sc2ccccc2NC1=O` (centres undefined): the EC50 was greater than 1120 µM and the IC50 is greater than 1120 µM.

For the molecule `CCOC(=O)c1nc2ccccc2nc1Oc1cc(OC)cc(OC)c1`, the EC50 was greater than 200 µM and the IC50 was greater than 200 µM.

As for `COc1cccc(Nc2nc3c([nH]2)c(=O)n(C)c(=O)n3C)c1`, the EC50 was greater than 170 µM and the IC50 turned out to be 89.1 µM.

Take `COC(=O)C1=C(C(=O)OC)C2(C)CCC(=O)C1O2` (centres undefined): the EC50 was greater than 200 µM and the IC50 is greater than 200 µM.

In the case of `CCCC[C@H]1[C@@H](OCOc2ccccc2)COC(=O)N1[C@H](C)c1ccccc1`, the EC50 is greater than 200 µM and the IC50 amounted to 21.4 µM.

On to `CNC(=O)CN1CC(=O)N(C)C(=O)C1`, for which the EC50 was greater than 1260 µM and the IC50 was greater than 1260 µM.

With `CCOC(=O)C(CC(C)C)NC(=O)C(Cc1ccccc1)NC(=O)CNC(=O)OC(C)(C)C` (stereo not drawn) (Boc-Gly-Phe-Leu-OEt; configuration not given here), the EC50 is greater than 200 µM and the IC50 was 8.51 µM.

In the case of `CN(C)c1nc(N)nc(Nc2ccc(Br)cc2)c1N=O`, the EC50 was greater than 200 µM and the IC50 worked out at 37.2 µM.

For the molecule `Clc1ccc(/C=N/Nc2nnc3c4ccccc4c4ncccc4c3n2)cc1`, the EC50 was greater than 50.1 µM and the IC50 was greater than 50.1 µM.

For `N#Cc1c(NC(=O)CN2CCOCC2)c(C(=O)Nc2ccc(Cl)cc2)n2c1CCC2`, the EC50 was greater than 50.1 µM and the IC50 was greater than 50.1 µM.

Consider `Cc1ccc(S(=O)(=O)OCCn2cnc3nc(NC(=O)c4ccccc4)[nH]c(=O)c32)cc1`, for which the EC50 is greater than 57.5 µM and the IC50 was greater than 57.5 µM.

As to `CCCc1cc(=O)oc2c3c(c4c(c12)OC(C)(C)CC4)O[C@H](C)C(C)[C@@H]3O` (some centres undefined), the EC50 is greater than 200 µM and the IC50 is 162 µM.

With `Cn1c2ccccc2c2cc(-c3ccccc3)c3c(c21)C(=O)C=CC3=O`, the EC50 is greater than 77.6 µM and the IC50 is 2.57 µM.

Take `CC1CCC2c3c([nH]c4ccccc34)C3C(=O)N(C4CCCCC4)C(=O)C3C2C1` (centres undefined): the EC50 was greater than 200 µM and the IC50 was 9.33 µM.

Consider `Oc1ccccc1/C=N/N=C/c1ccccc1O`, for which the EC50 is greater than 200 µM and the IC50 was greater than 200 µM.

For `O=C(CC(C(=O)c1ccsc1)c1cccs1)c1ccsc1` (centres undefined), the EC50 is greater than 200 µM and the IC50 turned out to be 15.5 µM.

As to `COc1ncc(C#CC(=O)c2ccccc2OC)c(OC)n1`, the EC50 was greater than 0.2 µM and the IC50 stood at 0.132 µM.

Turning to `CCOC(=O)c1c(NC(=O)c2ccccc2)c(C#N)c2n1CCCCC2`, the EC50 was greater than 100 µM and the IC50 is greater than 100 µM.

As to `CCOC(=O)C1Oc2ccc([N+](=O)[O-])c3c2C1(O)CCC3` (centres undefined), the outcome was inactive.

In the case of `c1ccc(C2(c3ccccc3)SCCCS2)cc1`, the EC50 was greater than 19.1 µM and the IC50 was greater than 19.1 µM.

On to `O=C(Cc1ccccc1)Nc1ccccc1Cl`, for which the EC50 is greater than 204 µM and the IC50 was greater than 204 µM.

As for `CNCc1c(S)ccc2ccccc12`, the result was inactive.

As to `O=C1NC(=O)c2c3ccc(c21)CCc1ccc(c2c1C(=O)NC2=O)CC3`, the EC50 was greater than 15.1 µM and the IC50 is greater than 15.1 µM.

In the case of `C[N+](C)(C)C=NCCCCCCN=C[N+](C)(C)C`, the EC50 was greater than 200 µM and the half-maximal inhibitory concentration (IC50) was greater than 200 µM.

In the case of `COc1cc(/C=C(\NC(=O)c2ccccc2)c2nc3ccc4c(c3[nH]2)C(=O)c2ccccc2C4=O)cc(OC)c1OC`, the outcome was inactive.

With `C#CC(O)/C=C/C(O)CCCC(O)CC#CC(O)C#CCCCCC(O)/C=C/CCCC(=O)CCCCCCCCCCCCCCCC(O)C(O)C#CC(=O)O` (centres undefined), the EC50 is greater than 50.1 µM and the IC50 was 28.2 µM.

For `C=C1CC2(OC1=O)c1ccccc1CCc1ccccc12`, the EC50 was greater than 36.3 µM and the IC50 worked out at 6.17 µM.

In the case of `COC(=O)c1ccc(N/C=C(/C#N)c2ccsc2)cc1`, the EC50 was greater than 47.9 µM and the IC50 was greater than 47.9 µM.

Consider `COc1ccc2nc3cc([N+](=O)[O-])ccc3c(Nc3ccc(S(=O)(=O)Nc4ncccn4)cc3)c2c1`, for which the EC50 is greater than 200 µM and the IC50 worked out at 102 µM.

`NC(CSCc1ccccc1)C(=O)O` (centres undefined): the EC50 is greater than 224 µM and the half-inhibitory concentration (IC50) was greater than 224 µM.

On to `NC(CS)C(=O)O` (centres undefined), for which the EC50 is greater than 182 µM and the IC50 is greater than 182 µM.

Take `COc1cc2cc[n+](C)c(Cc3ccccc3)c2cc1OC`: the EC50 is greater than 200 µM and the IC50 stood at 166 µM.

Regarding `C=CC1=CC2(O[Si](C(C)C)(C(C)C)C(C)C)CCC1C(COCc1ccccc1)C2C(=O)O` (centres undefined), the EC50 is greater than 28.8 µM and the IC50 worked out at 20 µM.

For the molecule `CCOC(=O)c1c2nc3ccccc3sc-2c(C(=O)OCC)c1C(=O)OCC`, the EC50 was greater than 20 µM and the IC50 is 0.977 µM.

Regarding `COc1ccc([C@H]2Oc3cc(OCc4ccccc4)c(O)cc3[C@@H]2C)c(OC)c1`, the EC50 is greater than 200 µM and the IC50 is 38.9 µM.

Consider `Cc1ccc(Nc2nc(NNC(=O)Cc3ccccc3)nc(NNC(=O)c3ccncc3)n2)cc1`, for which the EC50 is greater than 50.1 µM and the IC50 was greater than 50.1 µM.

Turning to `COc1ccccc1NC(=O)C(/C=N/C(=S)NNC(C)=O)=C(/C)O`, the EC50 is greater than 200 µM and the IC50 was greater than 200 µM.

In the case of `COc1ccc2c(c1OC)C(=O)OC2c1c2c(c(OC)c3c1OCO3)C(C1OC(=O)c3c1ccc(OC)c3OC)N(C)CC2` (centres undefined), the outcome was inactive.

`CC(=O)Nc1c(C)cc2c(nc3n2CCC3OC(C)=O)c1[N+](=O)[O-]` (centres undefined): the EC50 is greater than 200 µM and the IC50 was greater than 200 µM.

For `Cc1cccc(-c2cccc(COCc3cccc(-c4cccc(CO)n4)n3)n2)n1`, the EC50 was greater than 100 µM and the IC50 stood at 43.7 µM.

Regarding `CC1CC(C#N)=C2NCCCCN2C1=O` (centres undefined), the result was inactive.

Take `COC(=O)c1c(N)n[nH]c1N`: the outcome was inactive.

In the case of `COC1=NN2C(OC)(c3ccccc3)c3c(-c4ccccc4)sc(-c4ccccc4)c3C2(c2ccccc2)S1` (centres undefined), the result was inactive.

`Nc1ccc(S(=O)(=O)Nc2nccs2)cc1N=Nc1ccccc1[N+](=O)[O-]` registered an EC50 greater than 200 µM and an IC50 greater than 200 µM.

Turning to `CCN(CC)CCCC(C)Nc1cc(C)nc2c1ccc1c2ccc2c(NC(C)CCCN(CC)CC)cc(C)nc21` (centres undefined), the EC50 was greater than 66.1 µM and the IC50 is 3.98 µM.

Regarding `COc1ccc(NCc2cnc3nc(N)nc(N)c3c2C)cc1`, the EC50 was greater than 200 µM and the IC50 was determined as 0.437 µM.

As to `CC1=C(C(=O)Nc2ccccc2)C(c2ccc(Cl)c(Cl)c2)C(C(=O)Nc2ccccc2)=C(C)N1`, the EC50 is greater than 10.7 µM and the IC50 is greater than 10.7 µM.

Turning to `N#CCc1ccc(C(C#N)/C(CCCC(=O)Nc2cccc([N+](=O)[O-])c2)=N\NC(=O)NN)cc1` (centres undefined), the EC50 is greater than 389 µM and the half-maximal inhibitory concentration (IC50) is greater than 389 µM.

As for `COc1ccc(C2c3cc4c(cc3OC(N3CCCCC3)C2C)OCO4)cc1` (centres undefined), the EC50 was greater than 200 µM and the IC50 was greater than 200 µM.

For `N#CSCC1COc2ccccc2O1` (centres undefined), the EC50 was greater than 200 µM and the IC50 is 1.23 µM.

For `CCCCN(CCO)Cc1cc(Nc2c3ccccc3nc3ccccc23)ccc1O`, the EC50 is greater than 63.1 µM and the IC50 was 20.4 µM.

`COc1nc2n[nH]nc2c(=O)[nH]1`: the result was inactive.

As for `O=S(=O)(O)SCCCNCCCNCCCSS(=O)(=O)O`, the EC50 is greater than 200 µM and the IC50 is 13.8 µM.

With `O=C1CSC(c2ccc([N+](=O)[O-])cc2)N1c1nc(-c2ccc3c(c2)CCCC3)cs1` (centres undefined), the EC50 was 155 µM and the IC50 was determined as 263 µM.

Consider `COC(=O)C(Cc1nc2ccc(Cl)cc2[nH]c1=O)C(=O)C(=O)Nc1ccccc1[N+](=O)[O-]` (centres undefined), for which the EC50 is greater than 148 µM and the IC50 is greater than 148 µM.

Consider `COc1ccc(N2C(=O)C(=O)N(c3ccc(N=Nc4ccccc4)cc3)C2=S)cc1`, for which the EC50 is greater than 200 µM and the IC50 is 11.7 µM.

For `CC1=CC(C)=Nc2ccc(Cl)cc2N1`, the EC50 is greater than 200 µM; the IC50 is 91.2 µM and > 200 µM.

As to `COc1ccc(C(N)=O)cc1N=NN(C)C`, the EC50 was greater than 1120 µM and the IC50 came to 501 µM.

As to `O=c1cc(-c2ccccc2)oc2c1ccc1[nH]c3ccccc3c(=O)c12`, the EC50 is greater than 200 µM and the IC50 was greater than 200 µM.

On to `Cc1c2ccc(Cl)cc2nc2ccc(OCCNC(=O)[C@H](CCCN=C(N)N)NC(=O)OC(C)(C)C)cc12`, for which the EC50 was greater than 200 µM and the IC50 is 89.1 µM.

Take `CC(=[OH+])[CH-]C(C)=NCC(C)N=C(C)CC(C)=[OH+].[Cu+2]` (centres undefined): the EC50 is greater than 200 µM and the IC50 was 20.9 µM.

Consider `CSc1ncnc2c1C[P+](Cc1ccccc1)(c1ccccc1)CC2` (centres undefined), for which the EC50 is greater than 562 µM and the IC50 is greater than 562 µM.

Consider `O=C(O)CC(NC(=O)C(F)(F)F)C(=O)NC1Cc2ccccc2OC1=O` (centres undefined), for which the EC50 was greater than 200 µM and the half-maximal inhibitory concentration (IC50) is greater than 200 µM.

For `Cc1ccccc1-n1c(=S)[nH]c2c(sc(=O)n2-c2ccccc2C)c1=O`, the EC50 is greater than 3.8 µM and the IC50 was greater than 3.8 µM.

Take `CN(C(=O)C1=CCC2(CC1)OCCO2)c1ccccc1I`: the EC50 was greater than 200 µM and the IC50 was greater than 200 µM.

Turning to `COc1ccc(-c2c3c(nc4[nH]c(=S)[nH]c(=S)c24)CCCC3)cc1OC`, the EC50 was greater than 200 µM and the IC50 is 49 µM.

As to `COc1cc2cnc3c4cc(OS(=O)(=O)c5ccccc5)ccc4ccc3c2cc1OC`, the EC50 was greater than 14.5 µM and the IC50 is greater than 14.5 µM.

Turning to `NCC1OC(OC2C(CO)OC(OC3C(O)C(N)CC(N)C3OC3OC(CN)C(O)C(O)C3N)C2O)C(N)C(O)C1O` (centres undefined) (tested in a mixture with another compound), the EC50 is greater than 135 µM and the IC50 turned out to be 9.33 µM.

Consider `CCOC(C(=O)N(C)CCN(C)CCc1ccccc1)(c1ccccc1)c1ccccc1`, for which the EC50 was greater than 200 µM and the IC50 was determined as 37.2 µM.

As for `COc1cc2c(cc1OC)C(Cl)C(c1ccc(F)cc1)=C2Cl` (centres undefined), the result was inactive.

Turning to `CCCCCCCC(=O)c1c(O)c2ccccc2oc1=O`, the EC50 is greater than 200 µM and the IC50 is 26.9 µM.
